As usually defined, the IC50 is the concentration that gives 50% inhibition. The low end stands for inhibition by little substance, the high end for a need for much substance. For orientation: Kd means the equilibrium constant for the complex coming apart. A low value points to tighter binding.

SMILES strings stand for the structures.

The values that follow come from patent US5760276A, “Aryl-and heteroarylcyclohexenyl substituted alkenes having retinoid agonist, antagonist or inverse agonist type biological activity” (Allergan, priority 1997, dated 1998).

The subject of one experiment is RARγ -VP-16. Nature of the experiment: Retinoid inverse agonist assay: inhibition of basal luciferase activity of RARγ-VP-16 chimeric receptor in cotransfected CV-1 cells. Type of experiment: cell-based. The conditions noted are these: CV-1 cells cotransfected with RARγ -VP-16, ER-RXRα chimeric receptor and ERE-tk-Luc reporter. The text has this:
Inverse agonists are ligands that are capable of inhibiting the basal receptor activity of unliganded receptors. […] Moreover, the biological effects associated with retinoid inverse agonists are distinct from those of retinoid agonists or antagonists. For example, RAR inverse agonists, but not RAR neutral antagonists, cause a dose-dependent inhibition of the protein MRP-8 in cultured human keratinocytes differentiated with serum. MRP-8 is a specific marker of cell differentiation, which is also highly expressed in psoriatic epidermis, but is not detectable in normal human skin. Thus, retinoid inverse agonists may offer a unique way of treating diseases such as psoriasis.
The activity of retinoid inverse agonists can be tested by the procedure of Klein et al. J. Biol. Chem. 271, 22692-22696 (1996) which is expressly incorporated herein by reference.
In this assay, retinoid inverse agonists are able to repress the basal activity of a […] -VP-16 chimeric receptor where the constituitively active domain of the herpes simplex virus (HSV) VP-16 is fused to the N-terminus of RARγ. […] Retinoid inverse agonists are able to inhibit the basal luciferase activity in these cells in a dose dependent manner and IC50 s measured.

The next experiment concerns the target T1, RARα (Homo sapiens, UniProt P10276).
T1 sequence (P10276 1-462): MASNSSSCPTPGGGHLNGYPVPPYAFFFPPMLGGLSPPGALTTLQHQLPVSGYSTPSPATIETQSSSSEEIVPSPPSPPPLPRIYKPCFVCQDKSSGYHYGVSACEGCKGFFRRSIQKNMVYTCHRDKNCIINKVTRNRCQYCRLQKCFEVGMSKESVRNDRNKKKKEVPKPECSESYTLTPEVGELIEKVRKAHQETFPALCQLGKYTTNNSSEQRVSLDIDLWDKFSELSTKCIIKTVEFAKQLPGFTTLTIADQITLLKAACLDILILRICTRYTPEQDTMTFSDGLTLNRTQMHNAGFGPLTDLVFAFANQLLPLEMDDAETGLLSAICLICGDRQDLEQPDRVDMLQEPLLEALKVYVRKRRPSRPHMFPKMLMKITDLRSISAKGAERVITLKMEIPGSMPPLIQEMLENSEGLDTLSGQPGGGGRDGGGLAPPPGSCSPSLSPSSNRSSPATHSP
As to the kind of experiment: Ligand binding assay, RARα. The text has this: (§1) Other assays described below, measure the ability of the compounds of the present invention to bind to, and/or activate various retinoid receptor subtypes. When in these assays a compound binds to a given receptor subtype and activates the transcription of a reporter gene through that subtype, then the compound is considered an agonist of that receptor subtype. […] In the below described assays the ability of the compounds to bind to RARα, RARβ, RARγ, RXRα, RXRβ and RXRγ receptors, and the ability or inability of the compounds to activate transcription of a reporter gene through these receptor subtypes can be tested.
(§2) A holoreceptor transactivation assay and a ligand binding assay which measure the antagonist/agonist like activity of the compounds of the invention, or their ability to bind to the several retinoid receptor subtypes, respectively, are described in published PCT Application No. WO WO93/11755 (particularly on pages 30-33 and 37-41) published on Jun. 24, 1993, the specification of which is also incorporated herein by reference. A description of the holoreceptor transactivation assay is also provided below.
(§3) CV1 cells (5,000 cells/well) were transfected with an RAR reporter plasmid MTV-TREp-LUC (50 ng) along with one of the RAR expression vectors (10 ng) in an automated 96-well format by the calcium phosphate procedure of Heyman et al. Cell 68, 397-406, (1992). For RXRα and RXRγ transactivation assays, an RXR-responsive reporter plasmid CRBPII-tk-LUC (50 ng) along with the appropriate RXR expression vectors (10 ng) was used substantially as described by Heyman et al. above, and Allegretto et al. J. Biol. Chem. 268, 26625-26633. For RXRβ transactivation assays, an RXR-responsive reporter plasmid CPRE-tk-LUC ([…]) along with RXRβ expression vector ([…]) was used as described in above. These reporters contain DRI elements from human CRBPII and certain DRI elements from promoter, respectively. (see Mangelsdorf et al. The Retinoids: Biology, Chemistry and Medicine, pp 319-349, Raven Press Ltd., New York and Heyman et al., cited above) (1, 8). A β-galactosidase (50 ng) expression vector was used as an internal control in the transfections to normalize for variations in transfection efficiency. The cells were transfected in triplicate for 6 hours, followed by incubation with retinoids for 36 hours, and the extracts were assayed for luciferase and β-galactosidase activities. The detailed experimental procedure for holoreceptor transactivations has been described in Heyman et al. and Allegretto et al., cited above. The results obtained in this assay are expressed in EC50 numbers, as they are also in the chimeric receptor transactivation assay. The Heyman et al. Cell 68, 397-406, Allegretto et al. J. Biol. Chem. 268, 26625-26633, and Mangelsdorf et al. The Retinoids: Biology, Chemistry and Medicine, pp 319-349, Raven Press Ltd., New York, are expressly incorporated herein by reference. The results of ligand binding assay are expressed in Kd numbers. (See Cheng et al. Biochemical Pharmacology Vol. 22 pp 3099-3108, expressly incorporated herein by reference.)

The target of the next experiment is T2, RARβ (Homo sapiens, UniProt P10826).
T2 sequence (P10826 1-455): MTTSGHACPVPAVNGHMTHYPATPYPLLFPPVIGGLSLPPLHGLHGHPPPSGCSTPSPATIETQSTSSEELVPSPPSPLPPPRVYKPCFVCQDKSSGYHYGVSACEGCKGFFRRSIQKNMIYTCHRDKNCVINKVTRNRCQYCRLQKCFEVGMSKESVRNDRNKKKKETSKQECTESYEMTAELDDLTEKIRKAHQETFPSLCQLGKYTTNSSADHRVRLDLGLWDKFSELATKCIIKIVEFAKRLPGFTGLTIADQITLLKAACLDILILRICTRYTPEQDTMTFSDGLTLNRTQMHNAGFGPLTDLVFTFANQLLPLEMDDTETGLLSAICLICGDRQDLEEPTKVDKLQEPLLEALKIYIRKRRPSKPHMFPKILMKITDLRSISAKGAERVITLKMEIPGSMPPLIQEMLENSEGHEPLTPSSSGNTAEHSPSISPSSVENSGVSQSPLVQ
Nature of the experiment: Ligand binding assay, RARβ.
Text: as §1, §2, §3

The target of another experiment is T3, RARγ (Homo sapiens, UniProt P13631).
T3 sequence (P13631 1-454): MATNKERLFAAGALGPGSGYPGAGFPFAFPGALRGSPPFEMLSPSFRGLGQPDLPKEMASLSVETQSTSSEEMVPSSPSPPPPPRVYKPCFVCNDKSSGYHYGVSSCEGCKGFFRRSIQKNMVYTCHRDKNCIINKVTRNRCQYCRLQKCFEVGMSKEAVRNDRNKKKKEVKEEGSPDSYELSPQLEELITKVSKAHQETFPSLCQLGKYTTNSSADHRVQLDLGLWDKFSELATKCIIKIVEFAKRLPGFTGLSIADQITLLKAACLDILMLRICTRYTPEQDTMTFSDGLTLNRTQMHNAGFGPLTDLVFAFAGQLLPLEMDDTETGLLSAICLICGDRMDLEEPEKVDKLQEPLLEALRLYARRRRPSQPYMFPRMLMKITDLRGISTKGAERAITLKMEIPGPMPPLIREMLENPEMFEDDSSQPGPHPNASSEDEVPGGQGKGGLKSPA
Nature of the experiment: Ligand binding assay, RARγ. The text has this:
Other assays described below, measure the ability of the compounds of the present invention to bind to, and/or activate various retinoid receptor subtypes. When in these assays a compound binds to a given receptor subtype and activates the transcription of a reporter gene through that subtype, then the compound is considered an agonist of that receptor subtype. […] In the below described assays the ability of the compounds to bind to RARα, RARβ, RARγ, RXRα, RXRβ and […]. receptors, and the ability or inability of the compounds to activate transcription of a reporter gene through these receptor subtypes can be tested. A holoreceptor transactivation assay and a ligand binding assay which measure the antagonist/agonist like activity of the compounds of the invention, or their ability to bind to the several retinoid receptor subtypes, respectively, are described in published PCT Application No. […] A description of the holoreceptor transactivation assay is also provided below. […] Cell 68, 397-406, (1992). For RXRα and RXRγ transactivation assays, an RXR-responsive reporter plasmid CRBPII-tk-LUC (50 ng) along with the appropriate RXR expression vectors (10 ng) was used substantially as described by Heyman et al. above, and Allegretto et al. J. Biol. Chem. 268, 26625-26633. […] These reporters contain DRI elements from human CRBPII and certain DRI elements from promoter, respectively. (see Mangelsdorf et al. The Retinoids: Biology, Chemistry and Medicine, pp 319-349, Raven Press Ltd., New York and Heyman et al., cited above) (1, 8). A β-galactosidase (50 ng) expression vector was used as an internal control in the transfections to normalize for variations in transfection efficiency. The cells were transfected in triplicate for 6 hours, followed by incubation with retinoids for 36 hours, and the extracts were assayed for luciferase and β-galactosidase activities. The detailed experimental procedure for holoreceptor transactivations has been described in Heyman et al. and Allegretto et al., cited above. The results obtained in this assay are expressed in EC50 numbers, as they are also in the chimeric receptor transactivation assay. The Heyman et al. Cell 68, 397-406, Allegretto et al. J. Biol. Chem. 268, 26625-26633, and Mangelsdorf et al. The Retinoids: Biology, Chemistry and Medicine, pp 319-349, Raven Press Ltd., New York, are expressly incorporated herein by reference. The results of ligand binding assay are expressed in Kd numbers.

For `CCOC(=O)c1ccc(C#C/C=C/C2C(c3ccc(C)cc3)=CCCC2(C)C)cc1` (racemic) [Compound 10, Ethyl (±)-(E)-4-(4-(2-(4-Methylphenyl)-4,4-dimethylcyclohexen-3-yl)but-3-en-1-yn-1-yl)benzoate], the IC50 in the experiment with RARγ -VP-16 is 1 nM.
Take `Cc1ccc(C2=CCCC(C)(C)C2/C=C/C#Cc2ccc(C(=O)O)cc2)cc1` (racemic) [Compound 14, (±)-(E)-4-(4-(2-(4-Methylphenyl)-4,4-dimethylcyclohexen-3-yl)but-3-en-1-yn-1-yl)benzoic acid]: the Kd on RARα stood at 454 nM; at RARβ, 24 nM; at RARγ it was 98 nM.
Regarding `Cc1ccc(C2=C(/C=C/C#Cc3ccc(C(=O)O)cc3)C(C)(C)CCC2)cc1` [Compound 13, (E)-4-(4-(1-(4-Methylphenyl)-3,3-dimethylcyclohexen-2-yl)but-3-en-1-yn-1-yl)benzoic Acid], the equilibrium dissociation constant (Kd) on RARα was found to be 148 nM; on RARβ, 6 nM; at RARγ, 21 nM.
The corresponding values for `CCc1ccc(C2=C(/C=C/C#Cc3ccc(C(=O)O)cc3)C(C)(C)CCC2)cc1` [Compound 15, (E)-4-(4-(1-(4-Ethylphenyl)-3,3-dimethylcyclohexen-2-2l)but-3-en-1-yn-1-yl)benzoic acid] are 136 nM, 4 nM and 36 nM.
In the same order, the values of `CC1(C)CCCC(c2ccc(C(C)(C)C)cc2)=C1/C=C/C#Cc1ccc(C(=O)O)cc1` [Compound 16, (E)-4-(4-(1-(4-tert-butylphenyl)-3,3-dimethylcyclohexen-2-yl)but-3-en-1-yn-1-yl)benzoic acid] are 875 nM, 13 nM and 333 nM.
On to `Cc1ccc(C2=CCC(C)(C)C=C2/C=C/C#Cc2ccc(C(=O)O)cc2)cc1` [Compound 24, (E)-4-(4-(2-(4-Methylphenyl)-5,5-dimethyl-1,3-cyclohexadien-3-yl)but-3-ene-1-yn-1-yl)benzoic Acid], for which the Kd on RARα came to 134 nM; at RARβ it was 48 nM; at RARγ, 33 nM.
